Reference: ChEMBL document CHEMBL1130740, “Sugar-substituted 2-azetidinone cholesterol absorption inhibitors: enhanced potency by modification of the sugar” (1998)

Key:
Format in all cases: functional, Cricetulus griseus
[1] = test system: Cricetinae gen. sp.; assay: Dose required to inhibit cholesterol absorption in cholesterol fed hamster model
[2] = test system: Cricetinae gen. sp.; assay: Compound was tested for percent reduction of liver cholesterol esters absorption in cholesterol fed hamster model at a dose of 3 mg/kg/day
[3] = test system: Cricetinae gen. sp.; assay: Compound was tested for percent reduction of serum cholesterol absorption in cholesterol fed hamster model at a dose of 3 mg/kg/day

## O=C1[C@H](CC[C@H](O)c2ccc(F)cc2)[C@@H](c2ccc(O)cc2)N1c1ccc(F)cc1 [EZETIMIBE]
[1]
  ED50: 0.04 mg/kg/day
[2]
  Reduction: -93%
[3]
  Reduction: -43%

## COC(=O)[C@H]1O[C@@H](Oc2ccc([C@@H]3[C@@H](CC[C@H](O)c4ccc(F)cc4)C(=O)N3c3ccc(F)cc3)cc2)[C@H](O)[C@@H](O)[C@@H]1O
[1]
  ED50: 0.04 mg/kg/day
[2]
  Reduction: -89%
[3]
  Reduction: -48%

## O=C(O)[C@H]1O[C@@H](Oc2ccc([C@@H]3[C@@H](CC[C@H](O)c4ccc(F)cc4)C(=O)N3c3ccc(F)cc3)cc2)[C@H](O)[C@@H](O)[C@@H]1O
[1]
  ED50: 0.17 mg/kg/day
[2]
  Reduction: -95%
[3]
  Reduction: -50%

## CC(=O)OC[C@H]1O[C@@H](O[C@H]2[C@H](OC(C)=O)[C@@H](OC(C)=O)[C@H](Oc3ccc([C@@H]4[C@@H](CC[C@H](OC(C)=O)c5ccc(F)cc5)C(=O)N4c4ccc(F)cc4)cc3)O[C@@H]2COC(C)=O)[C@H](OC(C)=O)[C@@H](OC(C)=O)[C@@H]1OC(C)=O
[2]
  Reduction: -75%
[3]
  Reduction: -43%

## COc1ccc([C@@H]2[C@@H](CCCc3ccccc3)C(=O)N2c2ccc(OC)cc2)cc1 [SCH-48461]
[1]
  ED50: 2 mg/kg/day

## COC(=O)[C@H]1O[C@@H](Oc2ccc([C@@H]3[C@@H](CC[C@H](OC(C)=O)c4ccc(F)cc4)C(=O)N3c3ccc(F)cc3)cc2)[C@H](OC(C)=O)[C@@H](OC(C)=O)[C@@H]1OC(C)=O
[1]
  ED50: 0.09 mg/kg/day
[2]
  Reduction: -96%
[3]
  Reduction: -53%

## O=C1[C@H](CC[C@H](O)c2ccc(F)cc2)[C@@H](c2ccc(O[C@@H]3O[C@H](CO)[C@@H](O)[C@H](O)[C@H]3O)cc2)N1c1ccc(F)cc1
[1]
  ED50: 0.08 mg/kg/day
[2]
  Reduction: -92%
[3]
  Reduction: -48%

## CC(=O)OC[C@H]1O[C@@H](Oc2ccc([C@@H]3[C@@H](CC[C@H](OC(C)=O)c4ccc(F)cc4)C(=O)N3c3ccc(F)cc3)cc2)[C@H](OC(C)=O)[C@@H](OC(C)=O)[C@@H]1OC(C)=O
[2]
  Reduction: -58%
[3]
  Reduction: -14%

## O=C1[C@H](CC[C@H](O)c2ccc(F)cc2)[C@@H](c2ccc(O[C@@H]3O[C@H](CO)[C@@H](O[C@@H]4O[C@H](CO)[C@@H](O)[C@H](O)[C@H]4O)[C@H](O)[C@H]3O)cc2)N1c1ccc(F)cc1
[1]
  ED50: 0.01 mg/kg/day
[2]
  Reduction: -90%
[3]
  Reduction: -36%
